Measurements: article doi:10.1101/2020.02.14.948786v2 (bioRxiv, 2020)

Tested on: Ca^2+ spiking in Neurospora crassa conidia expressing GCaMP6s
Assay: Ca^2+ spiking in single conidia expressing GCaMP6s
Format: cell-based
Settings: conidia pre-treated with 5 mM BAPTA before ddH2O or PAF26 treatment

O=C(O)CN(CC(=O)O)c1ccccc1OCCOc1ccccc1N(CC(=O)O)CC(=O)O [BAPTA]
frequency of Ca^2+ spiking after chelation of external Ca^2+: 0
